This is an account of results in PMC7710018, “Restoration of motor learning in a mouse model of Rett syndrome following long-term treatment with a novel small-molecule activator of TrkB” (Disease Models & Mechanisms, 2020).

SMILES strings stand for the structures.

One assay relates to AKT. Briefly: In vivo TrkB signaling, western blot of hippocampus and mPFC. To be noted: male Mecp2 null mice, 50 mg/kg i.p. once daily 5 days, 1 h after last injection, vs saline. Details: species or system mouse. The protocol: Animals were given either single or repeated doses of PTX-BD4-3 (50 mg/kg, i.p.) or vehicle (saline) and then sacrificed for tissue harvesting and western blot analysis of phosphorylated and total TrkB (pTrkB/TrkB), AKT (also known as AKT1) (pAKT/AKT) and ERK (also known as MAPK) (pERK/ERK), respectively, in the hippocampus and medial prefrontal cortex (mPFC).
Fig. 4. PTX-BD4-3 activates TrkB signaling in vivo following systemic administration in null male Mecp2 mutant mice. Null mice were treated for 5 days with once daily injections of PTX-BD4-3 (open bars, 50 mg/kg, i.p.) or saline (black bars, vehicle) and then sacrificed 1 h after the last injection. Brain lysates from the hippocampus and medial prefrontal cortex (mPFC) were processed for western blot analysis of phosphorylated and total TrkB (pTrkB^Y817/TrkB), AKT (pAKT/AKT) and ERK (pERK/ERK) as described in the Materials and Methods. For detection of total TrkB, AKT and ERK, blots were concomitantly probed with the respective total protein antibodies and each of the three bands quantitated as indicated by arrows. For ERK, the pair of bands (consistent with ERK1 and ERK2 isoforms) indicated by the brackets was quantitated together as one value. For each tissue, the same blot and images for total protein (TrkB, AKT, ERK, actin) are shown here in triplicate as an adjacent reference to phospho-protein detection. For detection of phospho-proteins in the hippocampus, blots were probed separately with the three indicated phospho antibodies. For detection in the mPFC, blots were probed separately for pTrkB and probed for pAKT and pERK concomitantly; and for the latter two, the same blot and image are shown here in duplicate as an adjacent reference to phospho-protein detection. ^§P<0.01 (compared to vehicle); *P<0.05 (compared to vehicle); Student's t-test.
Frozen tissues were lysed in RIPA lysis buffer (150 mM NaCl, 50 mM Tris, pH 7.4, 1 mM EDTA, 1% Triton X-100 or 1% NP40, 10% glycerol, 1 mM phenylmethylsulfonyl fluoride, Na3VO4 and protease inhibitor cocktail). Lysates were mixed with 4× NuPAGE LDS loading buffer and dithiothreitol, and 50 μg protein was loaded per lane on a NuPAGE 4-12% Bis-Tris gradient gel and transferred to polyvinylidene difluoride membrane (run at 100 V for 1.5 h). […]
A general note: A western blot detects proteins with antibodies after separation by electrophoresis.

The next assay has as its system 3T3-TrkA cells. Briefly: NIH-3T3 cell survival (ViaLight). In kind it is cell-based, mouse. To be noted: serum-free medium, 72-96 h, PTX-BD4-3 1000 nM. As to the method: (§1) Fig. 2. PTX-BD4-3 promotes cell survival preferentially through TrkB. (A-D) Neurotrophin receptor-expressing NIH-3T3 cells were incubated in culture medium (CM) alone or in medium plus either the indicated neurotrophins (BDNF, NGF, NT-3) or PTX-BD4-3 or its parent compound LM22A-4 for 72-96 h, after which survival was measured using the ViaLight assay. […] Scale bar: 10 μm. (B) Survival dose-response curves for PTX-BD4-3 and LM22A-4 in 3T3-TrkB cells. ^§P≤0.001 compared to CM alone. (C) Representative images of 3T3-TrkA, 3T3-TrkC and 3T3-p75 cells grown in the presence of CM alone, CM+neurotrophin or CM+PTX-BD4-3. Scale bar: 10 μm. NGF, NT-3 and BDNF served as positive controls for 3T3-TrkA, 3T3-TrkC and 3T3-p75 cells, respectively. (D) PTX-BD4-3 (1000 nM) had no effect on survival of 3T3-TrkA, 3T3-TrkC or 3T3-p75 cells compared to medium alone. *P≤0.05, ***P≤0.001 compared to CM alone. For each determination in B and D, n=10-32 wells derived from four to five independent experiments. Statistical significance was determined by one-way ANOVA with Dunnett's post hoc multiple comparison test. (E,F) […] protein was extracted from human cementoblast-like cell (HCEM) cultures treated with either culture medium alone, BDNF, LM22A-4 or PTX-BD4-3, immunoprecipitated with anti-TrkB antibody and then probed sequentially on western blots with anti-Shc and anti-TrkB antibody. The ratio of Shc to TrkB in treated cultures was normalized and compared to control (CM alone) using Kruskal-Wallis ANOVA followed by Dunn's multiple comparisons test (*P≤0.05, ^§P≤0.001). n=13 independent experiments, and each protein sample was run on duplicate western blots and the normalized values averaged. RLUs, relative light units.
(§2) Mouse NIH-3T3 cells expressing TrkA (NIH-3T3-TrkA) were provided by Dr William Mobley (University of California at San Diego, San Diego, CA, USA), and NIH-3T3 cells expressing TrkB (NIH-3T3-TrkB) or TrkC (NIH-3T3-TrkC) were provided by Dr David Kaplan (University of Toronto, Toronto, ON, Canada). Cells were propagated in Dulbecco's modified Eagle medium (DMEM) supplemented with 10% fetal bovine serum (FBS; Invitrogen) and 200-400 µg/ml Geneticin. Cells were seeded into 24-well plates (30,000 cells/well) and cultured in medium consisting of 50% PBS and 50% DMEM without supplements. Following exposure to BDNF (20 ng/ml, 0.7 nM) or 10-1000 nM LM22A-4 or PTX-BD4-3 for 72-96 h, cells were suspended in 50 µl lysis buffer, transferred to white, opaque 96-well culture plates and survival was measured using the ViaLight Assay (Lonza Group, Rockland, ME, USA).

In a further assay the test system is 3T3-TrkC cells. Briefly: NIH-3T3 cell survival (ViaLight). In kind it is cell-based, mouse. To be noted: serum-free medium, 72-96 h, PTX-BD4-3 1000 nM. As to the method:
as §1, §2

For the next assay, the system named is 3T3-p75 cells. Briefly: NIH-3T3 cell survival (ViaLight). The assay is classed as cell-based, mouse. To be noted: serum-free medium, 72-96 h, PTX-BD4-3 1000 nM. As to the method: as §1, §2

Regarding `COCCN(C)C(=O)c1cc(C(=O)N(C)CCOC)cc(C(=O)N(C)CCOC)c1` [PTX-BD4-3, benzene-1,3,5-tricarboxylic acid tris-[(2-methoxy-ethyl)-methyl-amide]], the pAKT/AKT result in the assay with AKT is reported as “significantly increased”. Further, the “survival of 3T3-TrkA cells” value in the assay on 3T3-TrkA cells was “no effect”. Also, the “survival of 3T3-TrkC cells” value in the assay with 3T3-TrkC cells is “no effect”. Further, the “survival of 3T3-p75 cells” value with 3T3-p75 cells is “no effect”.
